Values quoted from earlier work in patent publication US20060008520A1, “Delayed release formulations of 6-mercaptopurine” (priority 2004, published 2006).

Sc1ncnc2nc[nH]c12 [6-MP, 6-mercaptopurine]
fraction of an oral dose absorbed: Approximately 50%
